In publication PMC3764137, “Sulphamoylated 2-Methoxyestradiol Analogues Induce Apoptosis in Adenocarcinoma Cell Lines” (PLoS ONE, 2013):
Entries after “also recorded” stand apart in the source; their conditions may differ.

Tests used:
[1] = test system: human umbilical vein endothelial cells (HUVECs); settings: 500 nM, 72 hours of exposure; ref 13 (Foster et al. 2008); cited from earlier work
[2] = test system: tubulin; experiment: Tubulin polymerization assay (DAPI fluorescence); format: biochemical; settings: for EC50: in vitro tubulin polymerization, read-out: tubulin polymerization inhibition EC50
Method: Briefly, microtubule assembly was conducted in a half area 96 well black plate using a microplate reader FLUOstar OPTIMA (BMG Labtechnologies). […] Following 10 min incubation, assembly was initiated by injection of GTP and MgCl2 to a final concentration of 1 mM and 5 mM respectively, yielding a reaction volume of 100 µl. The excitation and emission wavelengths were set at 360 and 450 nm, respectively, and the fluorescence of microtubule-bound DAPI was monitored as a function of time at 37°C. Fluorescence signal at time 0 for each well was subtracted from each of the subsequent fluorescence readings, [22].

[3] = test system: MDA-MB-231; settings: 500 nM, 72 hours of exposure; ref 13 (Foster et al. 2008); cited from earlier work
[4] = test system: MCF-7 cell line; settings: cited from earlier work
[5] = test system: HeLa cells; experiment: Cell morphology by transmission electron microscopy; format: cell-based, human; settings: 24 h
Method: The in vitro influence of ESE-15-one, EMBS and ESE-16 on cell morphology was determined after exposure for 24 h using transmission electron microscopy (TEM). […] After each fixation step the samples were rinsed 3 times in 0.0075 M sodium phosphate buffer (pH 7.4). Samples were dehydrated using increasing concentrations of ethanol (30%, 50%, 70%, 90%, and 3×100%) and embedded in Quetol resin, sectioned with a microtome and placed on copper discs. Sections were contrasted with 4% aqueous uranyl acetate and Reynolds' lead citrate and viewed with a JOEL JEM 2100F transmission electron microscope (Electron Microscopy Unit, University of Pretoria, South Africa).

[6] = test system: HeLa cells; experiment: Double immunofluorescence of intracellular microtubules; format: cell-based, human; settings: 24 h, 0.189 μM ESE-15-one, 0.5 μM EMBS and ESE-16, 1μM colchicine
Method: (§1) In order to visualize the effect of the 2ME2 analogues on microtubule dynamics and integrity, a double immunofluorescence technique using antibodies against tyrosinated and detyrsosinated tubulin was conducted as described by Paturle-Lafanechère et al. (2004). HeLa and MDA-MB-231 cells were seeded onto sterilized coverslips and allowed to grow to 80% confluency for 48 h. Cells were exposed to 0.189 μM ESE-15-one, 0.5 μM EMBS and ESE-16 along with DMSO (negative control) and 1μM colchicine as a positive control for 24 h. Cells were permeablised permeabilized with warmed OPT buffer (80 mmol/L Pipes, […], […], 0.5% Triton X-100 and glycerol 10%, pH 6.8), followed by fixation in ice-cold methanol at −20°C and were subsequently incubated with the primary antibody cocktail (PBS containing anti-detyrosinated tubulin (L4), anti-[…], BSA 0.3%, tween 0.1%). After incubation, cells were incubated with the secondary antibodies, namely Alexa 488 (Invitrogen) and Cy3 (Jackson ImmunoResearch laboratories). Samples were visualized using a Zeiss AxioImager Z1 microscope controlled by Axiovision softwared (Carl Zeiss) (X63 oil objective). Images were captured using an Ocra R2 N/B camera (Hamamatsu) and assessed for microtubule integrity and ratio of tyrosinated to detyrosinated tubulin.

[7] = test system: MDA-MB-231 cells; experiment: as above; format: cell-based, human; settings: MDA-MB-231, 24 h; 0.189 μM ESE-15-one, 0.5 μM EMBS and ESE-16, 1μM colchicine
Method: as §1

[8] = test system: HeLa cells; experiment: Mitochondrial membrane potential assay (Mitocapture, flow cytometry); format: cell-based, human; settings: 0.5 μM analogues (2-methoxyestradiol-bis-sulphamate 0.55 μM), 24 h
Method: Cells (500,000) were seeded with an overnight attachment policy. After 24 h of exposure to 0.5 μM of the sulphamoylated 2ME2 analogues, cells were detached using trypsin and centrifuged at 13,000×g.

[9] = test system: HeLa cells; experiment: Cytochrome c release (FlowCellect, flow cytometry); format: cell-based, human; settings: 0.5 μM analogues (2-methoxyestradiol-bis-sulphamate 0.55 μM), 24 h
Method: (§2) This kit utilizes a unique set of buffers that selectively permeabilizes the […] without affecting the mitochondrial membrane. […] Cells (500,000) were seeded with an overnight attachment policy. After 24 h of exposure to 0.5 μM of the sulphamoylated 2ME2 analogues, cells were detached using trypsin and centrifuged at 13,000×g. Cells (500,000) were resuspended in PBS, centrifuged and resuspended in permeabilization buffer (according to supplier's instructions) for 10 min on ice. Subsequently cells were centrifuged, resuspended in 100 µl fixation buffer (according to supplier's instructions) for 20 min at room temperature, centrifuged again and resuspended in blocking buffer (150 µl). After another centrifugation step, cells were centrifuged and resuspended in blocking buffer (twice). Anti-cytochrome c-FITC (10 µl) was added to each sample and samples were incubated for 30 min at room temperature. Cells were centrifuged and blocking buffer (100 µl) was added. After centrifugation, blocking buffer (200 µl) was added to the samples for analysis via flow cytometry (FC500 System flow cytometer, Beckman Coulter South Africa (Pty) Ltd). Cells presenting with cytochrome c release were detected in the fluorescein isothiocyanate (FITC) channel (FL1) showing diffused green fluorescence. Data from at least 10 000 cells were analyzed by means of Cyflogic version 1.2.1 software (Pertu Therho, Turko, Finland).

[10] = test system: MDA-MB-231 cells; experiment: Cytochrome c release (FlowCellect, flow cytometry); format: cell-based, human; settings: MDA-MB-231, 0.5 μM analogues (2-methoxyestradiol-bis-sulphamate 0.55 μM), 24 h
Method: as §2

[11] = test system: HeLa cells; experiment: Cell number determination by crystal violet staining; format: cell-based, human; settings: for cell growth: 24 h
Method: Crystal violet is a method used to determine the number of cells by staining the deoxyribonucleic acid (DNA). Gillies et al. (1986) used crystal violet to quantify cell number in monolayer cultures as a function of the absorbance of the dye taken up by the cells. A dose-dependent study was chosen with a concentration range of 0.1–25 μM since it was previously observed in our laboratory that this concentration series exerts antiproliferative activity in HeLa cells. Exponentially growing HeLa cells were seeded in 96 well tissue culture plates at a cell density of 5,000 cells per well. Cells were incubated at 37°C in a humidified atmosphere containing 5% CO2 for 24 h to allow for attachment. To establish the starting number of cells, a baseline determination was conducted before exposure. Subsequently, the medium was discarded and cells were exposed to the sulphamoylated 2ME2 analogues at a concentration series of 0.1–25 μM for the 24 h at 37°C. Vehicle-treated controls were also included. Cells were fixed with 100 µl of 1% gluteraldehyde (incubation for 15 min at room temperature). Gluteraldehyde was discarded and cells were stained using 100 µl 0.1% crystal violet (incubated at room temperature for 30 min). Excedent crystal violet was discarded and the 96 well plate was submersed under running water. Cells were solubilized using 200 µl 0.2% Triton X-100 and incubated at room temperature for 30 min. Solution (100 µl) was transferred to a new microtitre plate. Afterwards, the absorbance was determined at 570 nm using an ELx800 Universal Microplate Reader available from Bio-Tek Instruments Inc. (Vermont, United States of America).

[12] = test system: caspase-6; experiment: Caspase 6 colorimetric assay; format: cell-based, human; settings: 0.5 μM, 24 h
Method: (§3) Possible activation of caspase 3, -6 and -8 was investigated by means of caspase 3, caspase 6 and FLICE/caspase 8 colorimetric kits, respectively. Cells (1,000,000) were seeded with an overnight attachment policy. After 24 h of exposure to 0.5 μM of the sulphamoylated 2ME2 analogues, cells were detached with trypsin and centrifuged at 13,000× g. Cells (500,000) were resuspended in 50 µl of chilled cell lysis buffer and incubated on ice for 10 min. Cells were centrifuged at 10,000×g for a min. Supernatant was transferred to a fresh tube and put on ice. After determination of the protein concentration using the bicinchoninic acid (BCA) protein assay (Thermo Fisher Scientific, Johannesburg, South Africa), 100 µg protein/50 µl cell lysis buffer was mixed with 50 µl 2X reaction buffer (containing 10 mM Dithiothreitol (DTT)). Ac-Asp-Glu-Val-Asp-p-nitroanilide (Ac-DEVD-pNA) (5 µl of 4 mM) (caspase-3-specific substrate), or 5 µl 4 mM […] (Ac-VEID-pNA) (caspase-6-specific substrate), or 5 µl 4 mM Ac-Ile-Glu-Thr-Asp-p-nitroanilide (Ac-IETD-pNA) (caspase-8-specific substrate) was added and the mixture was incubated at 37°C for 120 min (200 µM final concentration). Absorbance was determined at 405 nm on the ELx800 Universal Microplate Reader available from Bio-Tek Instruments Inc. (Vermont, United States of America).

[13] = test system: caspase 3; settings: HeLa cells; another study conducted in our laboratory (data not shown); cited from earlier work
[14] = test system: caspase-8; experiment: FLICE/caspase 8 colorimetric assay; format: cell-based, human; settings: 0.5 μM, 24 h
Method: as §3

## COc1cc2c(cc1OS(N)(=O)=O)CC[C@@H]1[C@@H]2CC[C@]2(C)[C@@H](OS(N)(=O)=O)CC[C@@H]12 [2-methoxyestradiol-bis-sulphamate, reference compound]
[1]
  inner mitochondrial membrane potential: depolarized
[2]
  EC50: 11 µM
[3]
  inner mitochondrial membrane potential: depolarized
[4]
  concentration with antiproliferative activity: 0.1 to 1 µM
[5]
  apoptotic bodies (TEM): Apoptotic bodies were observed
  vacuoles (TEM): vacuoles

## COc1cc2c(c(OC)c1OC)-c1ccc(OC)c(=O)cc1[C@@H](NC(C)=O)CC2 [colchicine, reference compound]
[6]
  microtubule integrity: only fragments of detyrosinated microtubules remaining; also recorded: complete microtubule depolymerisation
[7]
  microtubule integrity: complete microtubule depolymerisation

## CCc1cc2c(cc1OS(N)(=O)=O)CC[C@@H]1[C@@H]2CC[C@]2(C)C=CC[C@@H]12 [ESE-16, 2-ethyl-3-O-sulphamoyl-estra-1,3,5 (10) 16-tetraene]
[8]
  cells with reduced mitochondrial potential: 68.43%
[9]
  Cytochrome c in cytoplasm (cells with cytochrome c release): 10%
[10]
  Cytochrome c in cytoplasm (cells with cytochrome c release): 30%
[6]
  microtubule integrity: microtubule abrogation; also recorded: complete microtubule depolymerisation
[7]
  microtubule integrity: detyrosinated microtubule fragments
[2]; in vitro
  effect on tubulin polymerization: more pronounced effect on tubulin polymerization; also recorded: pronounced effect comparable with that of colchicine
[2]
  EC50: 5 µM
[11]; 0.1 µM
  cell growth: 45.59%
[11]; 0.5 µM, compared to vehicle-treated cells
  cell growth: 45.30%
[11]; 24 h of exposure
  concentration that significantly inhibits HeLa proliferation: 0.5 µM
[12]
  caspase-6 activity ratio compared to vehicle-treated cells: 3.2
[5]
  apoptotic bodies (TEM): Apoptotic bodies were observed
  vacuoles (TEM): vacuoles
[5]; compared to vehicle-treated cells
  cell shrinkage (TEM): shrunken
[13]
  caspase 3 activity increase: 8 fold
[14]
  caspase-8 activity increase compared to vehicle-treated cells: 1.7 fold
